The values below come from publication PMC11943115, “GSTD1 Mediates the Tolerance to Abamectin and Beta-Cypermethrin in the Fall Armyworm Spodoptera frugiperda” (Insects, 2025).

The term Km denotes the substrate concentration at which the rate is half of its maximum.

In this test the target is T1, SfGSTD1 (Spodoptera frugiperda, UniProt A0A9R0F5L2).
T1 construct: gene LOC118269876; not XP_035440580.2, another SfGSTD1 of the literature that clusters with SeGSTD3
T1 sequence (A0A9R0F5L2 1-244): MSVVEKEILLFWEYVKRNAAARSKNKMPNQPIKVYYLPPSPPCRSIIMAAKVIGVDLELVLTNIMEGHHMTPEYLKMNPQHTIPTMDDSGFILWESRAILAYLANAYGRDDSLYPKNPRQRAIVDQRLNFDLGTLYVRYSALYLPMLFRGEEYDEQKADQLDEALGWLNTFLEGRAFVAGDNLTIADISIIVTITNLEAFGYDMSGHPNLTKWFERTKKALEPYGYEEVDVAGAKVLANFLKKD
Put plainly: GSH conjugation, absorbance […] nm. The following applies: 4 mM GSH; CDNB 0.125 to 4 mM. The class given is biochemical.

Regarding `O=[N+]([O-])c1ccc(Cl)c([N+](=O)[O-])c1` [CDNB], the Km is 421 ± 109 µM.
